The values below come from ChEMBL document CHEMBL5360576, “New and promising type of leukotriene B4 (LTB4) antagonists based on the 1,4-benzodioxine structure” (Eur J Med Chem, 2023).

Molecules are shown by their SMILES. Bounds are passed on as bounds.

The target of assay [1] is T1, Leukotriene B4 receptor (Homo sapiens, UniProt Q9NPC1+Q15722). Briefly: Antagonist activity against LTB4 receptor in human U-937 cells at 0.00001 M incubated for 40 mins by liquid scintillation counting method. In kind it is cell-based. The settings on record: dose 10 µM.
T1 sequence (Q15722 whole entry, looked up): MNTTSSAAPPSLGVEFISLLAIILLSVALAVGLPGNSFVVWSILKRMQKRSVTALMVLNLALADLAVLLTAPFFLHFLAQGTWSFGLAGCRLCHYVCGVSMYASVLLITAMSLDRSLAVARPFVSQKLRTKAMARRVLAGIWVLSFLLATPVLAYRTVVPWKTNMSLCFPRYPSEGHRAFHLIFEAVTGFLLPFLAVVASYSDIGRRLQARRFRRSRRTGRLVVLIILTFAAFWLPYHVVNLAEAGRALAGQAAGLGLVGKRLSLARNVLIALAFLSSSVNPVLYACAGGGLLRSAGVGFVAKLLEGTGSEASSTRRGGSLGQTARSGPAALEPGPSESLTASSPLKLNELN
T1 sequence (Q9NPC1 whole entry, looked up): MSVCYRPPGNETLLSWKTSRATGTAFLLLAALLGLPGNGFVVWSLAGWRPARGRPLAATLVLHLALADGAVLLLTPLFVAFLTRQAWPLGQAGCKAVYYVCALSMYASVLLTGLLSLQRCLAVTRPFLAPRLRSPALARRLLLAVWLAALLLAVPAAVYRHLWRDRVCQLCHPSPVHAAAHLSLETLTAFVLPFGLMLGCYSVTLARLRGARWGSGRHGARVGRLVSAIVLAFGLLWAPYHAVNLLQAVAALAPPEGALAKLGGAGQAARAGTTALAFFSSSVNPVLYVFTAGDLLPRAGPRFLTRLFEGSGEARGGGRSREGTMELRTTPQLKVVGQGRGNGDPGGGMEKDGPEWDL
The target of assay [2] is T1, Leukotriene B4 receptor. Nature of the assay: Antagonist activity against LTB4 receptor in human U-937 cells at 0.0000001 M incubated for 40 mins by liquid scintillation counting method. The settings on record: dose 100 nM. In kind it is cell-based.
For assay [3], the target named is T1, Leukotriene B4 receptor. Briefly: Antagonist activity against LTB4 receptor in human U-937 cells incubated for 40 mins by liquid scintillation counting method. Format: cell-based.
The subject of assay [4] is Rattus norvegicus. Nature of the assay: Antinflammatory activity against carrageenan induced pedal edema rat model assessed as average pedal volume at 30 mg/kg,po administration and measured after 1 hr (reference value: 1.82 +/- 0.04 mL). Format: functional. Background: Carrageenan injected into the paw causes an acute inflammation.
For assay [5], the system named is Rattus norvegicus. Briefly: Antinflammatory activity against carrageenan induced pedal edema rat model assessed as average pedal volume at 30 mg/kg,po administration and measured after 2 hrs (reference value: 2.2 +/- 0.1 mL). In kind it is functional.
Assay [6] relates to Rattus norvegicus. Nature of the assay: Antinflammatory activity against carrageenan induced pedal edema rat model assessed as average pedal volume at 30 mg/kg,po administration and measured after 4 hrs (reference value: 2.41 +/- 0.05 mL). In kind it is functional.
Assay [7] concerns Rattus norvegicus. Briefly: Antinflammatory activity against carrageenan induced pedal edema rat model assessed as inflammation at 30 mg/kg,po administration and measured after 1 hr (reference value: 20.17 +/- 2.8 %). In kind it is functional.
Assay [8] has as its system Rattus norvegicus. Nature of the assay: Antinflammatory activity against carrageenan induced pedal edema rat model assessed as inflammation at 30 mg/kg,po administration and measured after 2 hrs (reference value: 45.39 +/- 6.82 %). Format: functional.
In assay [9] the test system is Rattus norvegicus. Briefly: Antinflammatory activity against carrageenan induced pedal edema rat model assessed as inflammation at 30 mg/kg,po administration and measured after 4 hrs (reference value: 58.75 +/- 3.5 %). Format: functional.
Assay [10] has as its system Rattus norvegicus. Briefly: Antinflammatory activity against carrageenan induced pedal edema rat model assessed as reduction in edema at 30 mg/kg,po administration and measured after 1 hr relative to control. The arrangement: scale not given: the % may be the effect or the level left. In kind it is functional.
The subject of assay [11] is Rattus norvegicus. Briefly: Antinflammatory activity against carrageenan induced pedal edema rat model assessed as reduction in edema at 30 mg/kg,po administration and measured after 2 hrs relative to control. In kind it is functional. The arrangement: scale not given: the % may be the effect or the level left.
In assay [12] the test system is Rattus norvegicus. Briefly: Antinflammatory activity against carrageenan induced pedal edema rat model assessed as reduction in edema at 30 mg/kg,po administration and measured after 4 hrs relative to control. In kind it is functional. The arrangement: scale not given: the % may be the effect or the level left.
The target of assay [13] is T1, Leukotriene B4 receptor. Nature of the assay: Antagonist activity against LTB4 receptor (unknown origin) assessed as inhibition constant. In kind it is protein assay.
In assay [14] the test system is Rattus norvegicus. Briefly: Antinflammatory activity against carrageenan induced pedal edema rat model assessed as average pedal volume at 10 mg/kg,po administration and measured after 1 hr (reference value: 1.82 +/- 0.04 mL). In kind it is functional.
Assay [15] concerns Rattus norvegicus. Briefly: Antinflammatory activity against carrageenan induced pedal edema rat model assessed as average pedal volume at 10 mg/kg,po administration and measured after 2 hrs (reference value: 2.2 +/- 0.1 mL). Format: functional.
For assay [16], the system named is Rattus norvegicus. Nature of the assay: Antinflammatory activity against carrageenan induced pedal edema rat model assessed as average pedal volume at 10 mg/kg,po administration and measured after 4 hrs (reference value: 2.41 +/- 0.05 mL). Format: functional.
The subject of assay [17] is Rattus norvegicus. Nature of the assay: Antinflammatory activity against carrageenan induced pedal edema rat model assessed as inflammation at 10 mg/kg,po administration and measured after 1 hr (reference value: 20.17 +/- 2.8 %). In kind it is functional.
The test system of assay [18] is Rattus norvegicus. Nature of the assay: Antinflammatory activity against carrageenan induced pedal edema rat model assessed as inflammation at 10 mg/kg,po administration and measured after 2 hrs (reference value: 45.39 +/- 6.82 %). Format: functional.
The test system of assay [19] is Rattus norvegicus. Briefly: Antinflammatory activity against carrageenan induced pedal edema rat model assessed as inflammation at 10 mg/kg,po administration and measured after 4 hrs (reference value: 58.75 +/- 3.5 %). In kind it is functional.
Assay [20] has as its system Rattus norvegicus. Briefly: Antinflammatory activity against carrageenan induced pedal edema rat model assessed as reduction in edema at 10 mg/kg,po administration and measured after 1 hr relative to control. In kind it is functional. The arrangement: scale not given: the % may be the effect or the level left.
Assay [21] concerns Rattus norvegicus. Briefly: Antinflammatory activity against carrageenan induced pedal edema rat model assessed as reduction in edema at 10 mg/kg,po administration and measured after 2 hrs relative to control. The arrangement: scale not given: the % may be the effect or the level left. In kind it is functional.
Assay [22] relates to Rattus norvegicus. Nature of the assay: Antinflammatory activity against carrageenan induced pedal edema rat model assessed as reduction in edema at 10 mg/kg,po administration and measured after 4 hrs relative to control. In kind it is functional. The arrangement: scale not given: the % may be the effect or the level left.

The inhibition is the share of the control response that was lost under treatment. As for `CC(OCc1ccccc1)C1=C(C(=O)O)Oc2cc(OCc3ccccc3)ccc2O1` (configuration not stated), the inhibition in assay [1] (filed as antagonist) was 82%; in assay [2], 0%.

By IC50 is commonly meant the concentration at which inhibition is half-maximal. Consider `CN(CCc1ccccc1)C(=O)C1=C(C(=O)O)Oc2cc(OCc3ccccc3)ccc2O1`, for which the values for the inhibition in assay [1] (filed as antagonist) and in assay [2] were 99% and 38%, respectively. Moreover, the IC50 in assay [3] turned out to be 288 nM. Further, the Activity in assay [4] turned out to be 1.66 mL; in assay [5], 2.04 mL; in assay [6], 2.42 mL; in assay [7], 12.17%; in assay [8], 39.05%; in assay [9], 63.63%. Moreover, the Activity was determined as 39.7% in [10], 16.2% in assay [11] and 8.3% in assay [12].

The term Ki denotes the dissociation constant of the complex between target and ligand, obtained from inhibition or displacement. Regarding `CCCc1c(OCCCOc2ccc(C(=O)NC)c(OC)c2CC2CC2)ccc2c1O[C@H](CCC(=O)O)CC2`, the Ki in assay [13] came to 1.3 nM.

`CC(OCc1ccc2ccccc2c1)C1=C(C(=O)O)Oc2ccc(OCc3ccccc3)cc2O1` (configuration not stated): the inhibition in [1] (filed as antagonist) is 74%; in [2], 0%.

Consider `CC(OCc1ccccc1)C1=C(C(=O)O)Oc2ccc(OCc3ccccc3)cc2O1` (configuration not stated), for which the inhibition is 73% in [1] (filed as antagonist) and below 10% in assay [2].

`CC1(CCOCc2ccccc2)OC(=O)C2=C1Oc1cc(OCc3ccccc3)ccc1O2` (configuration not stated): the figures for the inhibition in assay [1] and in [2] were 13% and below 10%, respectively.

On to `CN(CCc1ccccc1)C(=O)C1=COc2ccc(OCc3ccccc3)cc2O1`, for which the inhibition stood at 40% in assay [1] (filed as antagonist) and 0% in assay [2]. The IC50 in [3] is above 10000 nM.

On to `O=C(O)C1=C(C(=O)N2CCC(Cc3ccccc3)CC2)Oc2cccc(OCc3ccccc3)c2O1`, for which the inhibition in [1] (filed as antagonist) stood at 62%; in assay [2] it was 0%. The molecule also came in with an IC50 in assay [3] of 5610 nM.

In the case of `CCN(CC)C(=O)C1=C(C(C)OCc2ccccc2)Oc2cc(OCc3ccccc3)ccc2O1` (configuration not stated), the inhibition in assay [1] (filed as antagonist) is 74%; in assay [2], below 10%.

`CN(CCc1ccccc1)C(=O)C1=C(C(=O)O)Oc2cc(OCc3ccc4ccccc4c3)ccc2O1`: the results for the inhibition in assay [1] (filed as antagonist) and in assay [2] were 97% and 18%, respectively. Moreover, the IC50 in assay [3] is reported as 710 nM.

`CN(CCc1ccccc1)C(=O)C1=C(C(=O)O)Oc2c(OCc3ccccc3)cccc2O1`: the inhibition in assay [1] (filed as antagonist) was determined as 94%; in [2] it was 4.8%. In [3], this molecule yielded an IC50 of 2700 nM.

As for `CCCc1ccccc1OCCCCCCc1cccc(OCCCCC(=O)O)c1CCC(=O)O`, the Ki in assay [13] came out at 1 nM.

As for `CC(OC/C=C/c1ccccc1)C1=C(C(=O)O)Oc2ccc(OCc3ccccc3)cc2O1` (configuration not stated), the inhibition stood at 92% in assay [1] (filed as antagonist) and 20% in [2].

For `O=C(O)C1=C(C(=O)N2CCC(Cc3ccccc3)CC2)Oc2ccc(OCc3ccccc3)cc2O1`, the inhibition in assay [1] (filed as antagonist) was determined as 98%; in [2], 20%. In assay [3], the IC50 is on record as 477 nM.

With `CC(OC/C=C/c1ccccc1)C1=C(C(=O)O)Oc2cc(OCc3ccccc3)ccc2O1` (configuration not stated), the inhibition in [1] (filed as antagonist) amounted to 82%; in assay [2], 0%.

With `O=C(O)C1=C(C(=O)N2CCC(c3ccccc3)CC2)Oc2cc(OCc3ccccc3)ccc2O1`, the inhibition in [1] was found to be 33%; in assay [2], 12%.

Molecule `O=C(O)C1=C(C(=O)N2CCC(c3ccccc3)CC2)Oc2ccc(OCc3ccccc3)cc2O1` displayed an inhibition in assay [1] of 29%.

Consider `O=C(O)C1=C(C(=O)N2CCC(Cc3ccccc3)CC2)Oc2cc(OCc3ccccc3)ccc2O1`, for which the inhibition in [1] (filed as antagonist) turned out to be 78%; in assay [2], 27%.

Take `COc1ccc2c(c1)c(CC(=O)O)c(C)n2C(=O)c1ccc(Cl)cc1` [INDOMETHACIN]: the Activity in assay [14] stood at 1.65 mL; in assay [15], 1.85 mL; in assay [16] it was 2.06 mL; in assay [17], 11.1%; in [18] it was 24.64%; in [19], 40.19%. Further, the Activity in assay [20] was found to be 45%; in assay [21], 45.3%; in assay [22], 31.6%.

On to `CN(CCc1ccccc1)C(=O)C1=C(C(=O)O)Oc2cccc(OCc3ccccc3)c2O1`, for which the inhibition in assay [1] came to 39%; in [2], 6%.

On to `CN(CCc1ccccc1)C(=O)C1=C(C(=O)O)Oc2ccc(OCc3ccccc3)cc2O1`, for which the results for the inhibition in assay [1] (filed as antagonist) and in assay [2] were 95% and 25%, respectively. This molecule also displayed an IC50 in assay [3] of 439 nM.
